Laboratory results reported in PMC5354587, “Ergosterone-coupled Triazol molecules trigger mitochondrial dysfunction, oxidative stress, and acidocalcisomal Ca^2+ release in Leishmania mexicana promastigotes” (Microbial Cell, 2015).

Key:
Format in all cases: cell-based
[1] = test system: Leishmania mexicana promastigotes; experiment: Half-inhibitory concentration on parasites, modified MTT method
Description: Parasites were treated with different concentrations of the synthesized compounds for 48 hours to determine their cytotoxic effect. A dose dependent growth inhibition was observed after this time.
(§1) Promastigotes of Leishmania mexicana Bel 21 strain were cultured at 26°C in Liver Infusion Tryptone (LIT) medium supplemented with 10% fetal bovine serum (Internegocios). Primary cultures of human dermic fibroblasts were performed at 37°C in DMEN medium (Sigma) supplemented with 10% fetal bovine serum in a CO2 incubator at 5% CO2.
(§2) To determine the IC50 in parasites and human fibroblasts the protocol described by was followed. Briefly, a suspension of 2 x 10^6 parasites per mL^-1 or 5 x 10^3 fibroblasts per well were transferred into 96 well plates and different concentrations of the compounds were added. Plates were incubated under the corresponding culture conditions for 48 or 72 hours for L. mexicana or human fibroblasts, respectively. Thereafter, parasites plates were centrifuged prior to the elimination of the supernatant. Cell viability was measured by the modified MTT method, where cells were incubated with the MTT substrate at 0.2 mg x mL^-1 for 4 hours. Colored crystals formed were solubilized in DMSO and absorbance was measured at 570 nm. IC50 was obtained from a dose response curve using the software OriginLab Pro 6.0^©.

[2] = test system: Leishmania mexicana promastigotes; experiment: Annexin V-AlexaFluor488/propidium iodide double staining, flow cytometry; settings: Erg-GTr 1.4 μM or Erg-GTr2 2.3 μM
Description: The effect of Erg-GTr and Erg-GTr2 was further analyzed to determine the cell death mechanism. Asymmetry of the plasma membrane is loosed when cell death processes are activated. The Annexin V-AlexaFluor488/propidium iodide double staining was used to detect phosphatidylserine (PS) in the outer leaflet of the plasma membrane using flow cytometry after parasite treatment. Cells were incubated for 24 and 48 hours with Erg-GTr (1.4 μM) or Erg-GTr2 (2.3 μM). […] At this time, the integrity of the plasma membrane was still intact, as evidenced by a low PI staining (5% or lower). After 48 hours, the percentage of Annexin V positive cells increased to reach more than 60% (Erg-GTr) or was maintained at around 40% in the case of Erg-GTr2 (Figure 2B). […] This phenomenon has been reported as a criterium of the late stage of cell death processes.
The annexin V-AlexaFluor 488 (Invitrogen) was used following the manufacture recommendations. Briefly, 1 x 10^6 parasites were washed with PBS and incubated with annexin V and propidium iodide (0.05 mg x mL^-1) in 100 μL binding buffer for 15 minutes. Final volume was adjusted at 500 μL and samples were immediately analyzed in a Beckman Coulter Gallios Cytometer.

[3] = test system: Leishmania mexicana promastigotes; experiment: Cytoplasmic Ca2+ level measurement with Fura 2-AM; settings: Erg-GTr 1.4 μM or Erg-GTr2 2.3 μM; same result with extracellular Ca2+ sequestered by EGTA
From the text: In order to evaluate the possible effect of Erg-GTr and Erg-GTr2 on the cytoplasmic Ca^2+ concentration ([Ca^2+]cyt) in L. mexicana promastigotes, parasites were loaded with fura 2-AM, a fluorimetric Ca^2+ indicator which allows the measurement of intracellular changes in its concentration. Figure 7A represents the relative [Ca^2+]cyt, indicated as normalized OD340/380 ratio.
The fluorescent ratiometric Ca^2+ indicator Fura 2-AM was used to analyze intracellular Ca^2+ concentration. Promastigotes from stationary phase cultures were washed twice with PBS containing 1% glucose and incubated for 3 hours at 29°C with 4 μM Fura 2-AM, […], and 0.05% pluronic acid. Thereafter, parasites were washed twice, resuspended, and placed in a stirred quartz cuvette at 29°C. Fluorescence (ex 340 nm/380 nm and em 510 nm) was registered in a Hitachi F-7000 Spectrofluorimeter. Digitonin and EGTA were used to obtain the maximum and minimum [Ca^2+] in the sample, respectively.

[4] = test system: Leishmania mexicana promastigotes; experiment: Mitochondrial membrane potential, Mitotracker Red CMXROS, flow cytometry; settings: treatment up to 48 hours, flow cytometry
Description: In order to determine the energetic state of the mitochondrion after parasites treatment, the compound Mitotraker Red CMXROS was used. As described in the Materials and Methods section, parasites were treated for 6, 16, 24, and 48 hours with each molecule at its IC50, then incubated with Mitotraker Red CMXROS (50 nM) for 30 minutes under culture conditions, and finally analyzed by flow cytometry. […] Additionally, to rule out if Erg itself (the non-azole fraction of the conjugates) could be responsible for this hyperpolarization, parasites were treated with this compound and ΔΨmit was monitored for up to 48 hours by flow cytometry.
Mitotracker CMX Red(Invitrogen) was used to determine the mitochondrial membrane potential (Ψmit) of treated parasites. After 6, 16, 24, and 48 hours treatment, cells were incubated in culture medium with 50 nM Mitotracker CMX Red for 30 minutes at 26°C in the dark. Thereafter, parasites were washed twice with PBS, resuspended in 1 mL buffer, and analyzed using a cytometer (Beckman Coulter). Parasites incubated with valinomycin (500 nM for 30 minutes) were used as positive control. To evaluate the effect of ergosterone coupled molecules on the mitochondrial membrane potential immediately after molecule addition we used the fluorophore rhodamine-123, a mitochondrion-specific cationic dye, which distributes across the inner mitochondrial membranes strictly according to their membrane potential, as described before. Briefly, 1 x 10^7 parasites were washed twice with rhodamine 123 loading buffer (20 mM Tris-HCl, 130 mM KCl, 1 mM MgCl2, and 2 mM KH2PO4) and incubated with 20 μM rhodamine 123 for 45 minutes at 29°C under agitation. Samples were washed twice, resuspended in 500 μL of the same buffer, and transferred to a quartz cuvette. Fluorescence (ex 488 nm and em 530 nm) was registered in a Hitachi F-7000 Spectrofluorimeter. FCCP was used as control for mitochondrial membrane depolarization.

[5] = test system: human dermic fibroblasts; experiment: Half-inhibitory concentration on human fibroblasts, modified MTT method; settings: Fibroblast, 72 hours
Description: as §1, §2

[6] = test system: Leishmania mexicana promastigotes; experiment: Alkalinization of acidocalcisomes, acridine orange; settings: Erg-GTr 1.4 μM or Erg-GTr2 2.4 μM; nigericin 2 μM as control
From the text: Leishmania can store Ca^2+ in different compartments like the endoplasmic reticulum, the mitochondrion, and the acidocalcisomes. The major Ca^2+ reservoir is represented by this last organelle. In order to analyze if the [Ca^2+]cyt increase is due to its release from acidocalcisomes, parasites were charged with acridine orange and assayed fluorimetrically. Since acridine orange accumulates in acidic compartments, it allows detection of alkalinization.
To evaluate the effect of ergosterone coupled molecules on the Ca^2+ reservoir organelle acidocalcisome, parasites were stained with acridine orange as described previously. Briefly, 1 x 10^7 parasites were washed twice with loading buffer (20 mM Tris-HCl, 130 mM KCl, 1 mM MgCl2, and 2 mM KH2PO4) and incubated for 5 minutes with acridine orange (5 μM). Samples were washed twice, resuspended in 500 μL of the same buffer, and transferred to a stirred quartz cuvette at 29°C. Fluorescence (ex 488 nm and em 530 nm) was registered in a Hitachi F-7000 Spectrofluorimeter. Nigericin was used as control for acidocalcisome alkalinization.

## CC(C)C(C)C=CC(C)C1CCC2C3=CC(=NNC(=O)n4cnnc4)C4(O)CC(=O)CCC4(C)C3CCC21C (stereo not shown) [Erg-GTr, [1,2,4]triazole-4-carboxylic acid [5-hydroxy-10,13-dimethyl-3-oxo-17-(1,4,5-trimethyl-hex-2-enyl)-1,2,3,4,5,9,10,11,12,13,14,15,16,17-tetradecahydro-cyclopenta[a]phenanthren-6-ylidene]-hydrazide]
[1]; Leishmania mexicana, 48 h, read-out: IC50 on L. mexicana promastigotes
  IC50: 1.4 ± 0.4 µM
[1]; promastigotes compared to human dermic fibroblasts
  Selectivity index: 9.8
[2]; 24 hours
  PI staining: ≤ 5%
  PS exposure, percentage of the cell population: 40.2%
[2]; 48 hours
  PI positive cells: 31%
  percentage of Annexin V positive cells: more than 60%
[3]
  effect on cytoplasmic Ca2+ concentration ([Ca2+]cyt): rapid increase
[4]
  effect on inner mitochondrial membrane potential (ΔΨmit): hyperpolarize
[5]
  IC50: 13.7 ± 1.9 µM
[6]
  acridine orange fluorescence (acidocalcisome alkalinization): rapid fluorescence increase
